Measured values: paper PMC7669869, “AdipoR1/AdipoR2 dual agonist recovers nonalcoholic steatohepatitis and related fibrosis via endoplasmic reticulum-mitochondria axis” (Nature Communications, 2020)
Where “and” joins values, the source holds several entries; their conditions need not be identical. Identical values can stand only once. Non-standard residues stand in square brackets, D forms with d. Residues, ends and D or L forms follow the SMILES beside them. Nva = CCC[C@H](N)C(=O)O

Assays:
AdipoR2 = target: T1, AdipoR2 (Homo sapiens, UniProt Q86V24); test: HTRF binding, AdipoR2 overexpression HEK293 cells; conditions: in words
T1 construct: His; host or cells: HEK293
T1 sequence (Q86V24 1-386): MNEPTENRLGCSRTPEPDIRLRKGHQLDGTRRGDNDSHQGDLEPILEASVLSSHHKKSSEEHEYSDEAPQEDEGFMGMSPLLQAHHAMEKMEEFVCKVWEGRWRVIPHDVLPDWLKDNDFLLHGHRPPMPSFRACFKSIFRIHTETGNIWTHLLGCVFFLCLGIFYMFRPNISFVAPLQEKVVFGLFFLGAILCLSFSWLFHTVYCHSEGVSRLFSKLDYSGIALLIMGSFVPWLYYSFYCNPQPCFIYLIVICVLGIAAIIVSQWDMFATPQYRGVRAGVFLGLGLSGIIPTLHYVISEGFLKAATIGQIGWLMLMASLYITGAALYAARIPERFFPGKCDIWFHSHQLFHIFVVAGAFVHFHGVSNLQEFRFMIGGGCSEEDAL
Description: The expression plasmid of AdipoR1 and AdipoR2 were synthesized and codon optimized by Genescript (Nanjing, China) for their expression in HEK293 cell line. The concentration of FITC-JT003 was 0, 0.1, 0.25, 0.5, 1, 2.5 or 5 μM respectively. Unlabeled peptide JT003 was used as the control to measure the non-specific signal. 10E4 AdipoR1 and AdipoR2 overexpression cells, anti-His-Tb (ThermoFisher Scientific, USA) and JT003-FITC were added into a 384-well plate, with a total volume of 25μl. The mixtures were incubated at room temperature for 30 min in the dark. Fluorescent values at 520 nm and 620 nm were measured for Kd calculation.

HFD induced NASH mice = test: HFD mice: liver histology (HE, PAS, Oil Red O); format: in vivo, mouse; conditions: JT003 500 μg kg−1 i.p. daily 4 weeks, in words
Description: The NASH model was conducted with feeding a HFD for 16 weeks combine with a MCD diet (Methionine/Choline Deficient Diet, Medicience, China) in the last 4 weeks. Mice administered a MCS diet (Methionine/Choline Sufficient Diet, Medicience, China) serves as control group. NAFLD or NASH mice treated with JT003 for 4 weeks were used to evaluate the pharmacological effects (n = 6; 500 μg kg^−1; daily intraperitoneal injection). Food and water were provided ad libitum. The body weight of mice was examined every 3 days. The diet was renewed every 7 days. JT003 was diluted in PBS.
The levels of TG and HYP in liver tissue were detected with certain commercial assay kit (Nanjing Jiancheng Bioengineering Institute, China). Formalin-fixed liver tissues were embedded in paraffin, sectioned into 5 μm slices. After deparaffinization and rehydration of the section slices, they were stained with Haematoxylin and Eosin or Periodic Acid-Schiff. For the detection of liver collagen content, Sirius Red staining for collagen was performed. OCT-embedded frozen liver tissues were sectioned into 12 μm slices, and Oil Red O staining was performed. The cryostat-cut slices were stained with freshly prepared Oil Red O working solution for 7 min Two independent experimenters who were blinded to the treatment evaluated the staining slides and analyzed the score for steatosis, glucogen accumulation and collagen proliferation area.

[1] = test system: liver gene expression of CCl4 induced liver fibrosis mice; test: CCl4 mice: liver mRNA, quantitative RT-PCR; format: in vivo, mouse; design: key to BAX liver mRNA / BID liver mRNA / UCP2 liver mRNA / DGAT1 liver mRNA / GSTM1 liver mRNA / GPX1 liver mRNA / HO-1 liver mRNA / XBP1 liver mRNA / ATF4 liver mRNA / GRP78 liver mRNA / BIM liver mRNA: mRNA expression normalized to β-actin reference gene; conditions: for BCL2 liver mRNA, relative expression (Apotosis), Supplementary Figure 16 / FAS liver mRNA, relative expression (Apotosis), Supplementary Figure 16: CCl4 + JT003 mice
Description: (§1) Male mice liver fibrosis was induced by intraperitoneal injection of 20% CCl4 (Sigma, USA) diluted in corn oil (Aladdin, China) every 3 days for 6 weeks (n = 6; 5 ml kg^−1 body weight). Mice injected with equivalent volume of corn oil serves as control group (n = 6). Liver fibrosis mice treated with JT003 for 3 weeks were used to evaluated the pharmacological effects (n = 6; 500 μg kg^−1; daily intraperitoneal injection).
Liver total RNA was extracted by using Trizol reagent following the manufacture’s instruction (TransGen Biotech, China). The concentration of RNA was measured by Nanodrop 2000 (ThermoFisher Scientific, USA). cDNA was transcribed from 10ug total RNA with First Strand cDNA synthesis Super Mix (TransGen Biotech, China). The cDNA was diluted 1/50 and 1.0 uL were used as a template for qPCR. qPCR was performed with SYBR Green qPCR Super Mix (TransGen Biotech, China) in the Light Cycler 480 Real-Time PCR System (Roche, Swiss). Reference gene β-actin was used for data normalization. mRNA expression was analyzed with specific primers listed in Supplementary Table 2.

[2] = test system: CCl4 induced liver fibrosis mice; test: CCl4 mice: apoptosis assay (TUNEL); format: in vivo, mouse; design: unit not given here; conditions: CCl4 + JT003 mice
Description: as §1
TUNEL assay was performed using 5 μm liver sections and the apoptotic cells were identified using a Cell Death Detection kit (Beyotime Biotechnology, Shanghai, China). And then the slices were counterstained with DAPI (Life science, ThermoFisher Scientific, USA). Six random fields from 6 slides per mice were examined, and the TUNEL-positive red area within the slides were counted by two individuals who were blinded to the treatment.

[3] = CCl4 fibrosis mice, liver, JT003 500 μg kg−1, in words
[4] = CCl4 mice, liver, JT003 500 μg kg−1, in words
[5] = Figure 7d left, CCl4 + JT003 group, single replicates, n = 6
[6] = Figure 7d right, CCl4 + JT003 group, single replicates, n = 6

`CCC[C@H](NC(=O)[C@@H]1CCCN1)C(=O)N[C@@H](CC(C)C)C(=O)N[C@@H](Cc1ccc(O)cc1)C(=O)N[C@@H](Cc1ccc(O)cc1)C(=O)N[C@@H](Cc1ccccc1)C(=O)N[C@@H](C)C(N)=O` [JT003] (H-P[Nva]LYYFA-NH2) was tested, and the “Kd value for AdipoR2 compared to JT006 and ADP355” value (AdipoR2) was “significantly lower Kd value”, the “glycogen over accumulation (PAS staining and hepatocyte glycogen analysis)” value (HFD induced NASH mice) was “largely eliminated” and the “lipid droplets in the liver (Oil red o staining)” value (HFD induced NASH mice) was “remarkably decreased lipid droplets”. For the same molecule, the “steatosis and inflammation area (HE staining)” value (HFD induced NASH mice) was “decreased”, the “BCL2 liver mRNA, relative expression (Apotosis), Supplementary Figure 16” value (“BCL2 liver mRNA, relative expression” for short) ([1]; replicate 1) was 19.1929 and the “FAS liver mRNA, relative expression (Apotosis), Supplementary Figure 16” value (“FAS liver mRNA, relative expression” below) ([1]; replicate 1) was 0.7337. The “BCL2 liver mRNA, relative expression” value ([1]; replicate 2) was 9.563, the “FAS liver mRNA, relative expression” value ([1]; replicate 2) was 0.7492 and the “BCL2 liver mRNA, relative expression” value ([1]; replicate 3) was 15.2158. For the same molecule, the “FAS liver mRNA, relative expression” value ([1]; replicate 3) was 0.6522, the “BCL2 liver mRNA, relative expression” value ([1]; replicate 4) was 10.7592 and the “FAS liver mRNA, relative expression” value ([1]; replicate 4) was 0.5898. For the same molecule, the “TGFβ, CTGF, IL-6, TNFα and IL-1β (HSCs activation)” value [1, 3] was “all suppressed”, the “expression of genes related to ECM accumulation (TIMP1, MMP3 and MMP8)” value [1, 3] was “decreased” and the “genes involved in ECM elimination (MMP2, MMP9 and MMP13)” value [1, 3] was “notably upregulated”. The “ER-Stress related genes (XBP1, ATF4, GRP78 and BIM)” value ([1]; CCl4 induced fibrosis mice, liver, JT003 500 μg kg−1, in words) was “remarkably suppressed”, the “anti-apoptotic BCL2 (RT-PCR)” value [1, 4] was “significantly improved” and the “apoptosis-related FAS (RT-PCR)” value [1, 4] was “reduced”. For the same molecule, the “ATF4 liver mRNA” value [1, 5] was 1.16 and 0.7959 and 1.086 (2×) and 0.9357 and 1.157, the “BIM liver mRNA” value [1, 5] was 0.2472 and 0.8351 and 0.6258 and 0.6305 and 0.5305 and 0.5258 and the “GRP78 liver mRNA” value [1, 5] was 0.8253 and 1.201 and 1.072 (2×) and 0.9986 and 0.797. For the same molecule, the “XBP1 liver mRNA” value [1, 5] was 2.911 and 0.8961 and 1.2156 (2×) and 1.656 and 1.136, the “DGAT1 liver mRNA” value ([1]; Figure 7d right, CCl4 + JT003 group, single replicates, 5 values) was 0.8433 and 1.099 and 1.191 and 0.9141 and 2.738 and the “BAX liver mRNA” value [1, 6] was 1.955 and 0.8137 and 1.744 and 0.6724 and 1.0479 and 1.373. For the same molecule, the “BID liver mRNA” value [1, 6] was 1.296 and 0.8034 and 0.6436 and 0.8394 and 0.9828 and 0.9284, the “GPX1 liver mRNA” value [1, 6] was 0.4793 and 0.5322 and 0.6634 and 0.7144 and 0.5138 and 0.7293 and the “GSTM1 liver mRNA” value [1, 6] was 0.3771 and 0.1875 and 0.195 and 1.014 and 0.3719 and 0.9044. For the same molecule, the “HO-1 liver mRNA” value [1, 6] was 1.179 and 1.19 and 1.314 and 1.134 and 1.372 and 1.274, the “PGC1a liver mRNA” value [1, 6] was 1.328 and 1.046 and 1.167 and 1.184 and 1.337 and 1.083 and the “PGC1b liver mRNA” value [1, 6] was 1.159 and 2.677 and 4.191 and 3.928 and 2.638 and 2.374. For the same molecule, the “UCP2 liver mRNA” value [1, 6] was 0.9325 and 1.681 and 1.172 and 0.7627 and 0.8293 and 0.6383, the “TUNEL, Supplementary Figure 16” value ([2]; replicate 1) was 0.177 and the “TUNEL, Supplementary Figure 16” value ([2]; replicate 2) was 0.215. For the same molecule, the “TUNEL, Supplementary Figure 16” value ([2]; replicate 3) was 0.261, the “TUNEL, Supplementary Figure 16” value ([2]; replicate 4) was 0.303 and the “TUNEL, Supplementary Figure 16” value ([2]; replicate 5) was 0.387. For the same molecule, the “TUNEL, Supplementary Figure 16” value ([2]; replicate 6) was 0.3, the “TUNEL, Supplementary Figure 16” value ([2]; replicate 7) was 0.353 and the “TUNEL, Supplementary Figure 16” value ([2]; replicate 8) was 0.189. For the same molecule, the “TUNEL, Supplementary Figure 16” value ([2]; replicate 9) was 0.125 and the “TUNEL, Supplementary Figure 16” value ([2]; replicate 10) was 0.252.
